Reference: patent US20230113037A1 (Bayer Aktiengesellschaft, priority 2019, published 2023)
Read-outs that look alike come from different tables or passages of the source.

What was measured:
AHR [1] = target: T1, AHR (Mus musculus, UniProt P30561); assay: In vitro assay 3: antagonism in mouse cell line (AHR transactivation, firefly luciferase reporter, kynurenic acid prestimulated); assay type: cell-based
T1 sequence (P30561 1-848 P471L/N533S/M589L): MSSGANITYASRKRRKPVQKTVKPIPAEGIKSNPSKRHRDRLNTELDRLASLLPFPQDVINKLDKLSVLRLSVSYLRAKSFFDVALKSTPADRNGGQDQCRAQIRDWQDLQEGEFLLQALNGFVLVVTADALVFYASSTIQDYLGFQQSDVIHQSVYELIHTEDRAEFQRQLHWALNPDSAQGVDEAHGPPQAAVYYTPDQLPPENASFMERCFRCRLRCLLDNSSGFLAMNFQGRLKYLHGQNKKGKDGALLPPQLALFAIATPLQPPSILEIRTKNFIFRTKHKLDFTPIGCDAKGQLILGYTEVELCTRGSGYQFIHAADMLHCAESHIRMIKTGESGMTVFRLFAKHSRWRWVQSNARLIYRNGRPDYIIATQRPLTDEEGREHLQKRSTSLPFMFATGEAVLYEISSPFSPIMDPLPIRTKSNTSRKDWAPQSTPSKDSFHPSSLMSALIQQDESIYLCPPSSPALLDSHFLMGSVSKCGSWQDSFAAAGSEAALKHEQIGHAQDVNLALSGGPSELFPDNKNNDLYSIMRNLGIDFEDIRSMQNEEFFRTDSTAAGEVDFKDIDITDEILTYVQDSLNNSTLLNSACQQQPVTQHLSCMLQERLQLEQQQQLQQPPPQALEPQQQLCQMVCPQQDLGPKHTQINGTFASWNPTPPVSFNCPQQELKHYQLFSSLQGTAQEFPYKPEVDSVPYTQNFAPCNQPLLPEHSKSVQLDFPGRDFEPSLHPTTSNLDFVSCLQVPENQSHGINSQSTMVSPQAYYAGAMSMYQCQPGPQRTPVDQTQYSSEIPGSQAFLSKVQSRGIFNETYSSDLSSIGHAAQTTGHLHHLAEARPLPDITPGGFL
Procedure, shortened: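 Mouse cells stably carrying a DRE-driven AHR-inducible firefly luciferase reporter were prestimulated with the endogenous agonist kynurenic acid before compound addition. Luciferase read by SteadyGlo; cells without kynurenic acid served as full-inhibition control, with normalization to positive and negative controls. Repeat tests reported as mean or median.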

AHR [2] = target: T2, AHR (Homo sapiens, UniProt P35869); assay: In vitro assay 1: antagonism in human cell line (AHR transactivation, firefly luciferase reporter, kynurenic acid prestimulated); assay type: cell-based; settings: AHR Antagonism Human IC50 [M]
T2 construct: U87 MG glioblastoma cells (ATCC #HTB-14) endogenously expressing AHR; endogenous in cells; host or cells: U87 MG glioblastoma cells (ATCC #HTB-14)
T2 sequence (P35869 11-848): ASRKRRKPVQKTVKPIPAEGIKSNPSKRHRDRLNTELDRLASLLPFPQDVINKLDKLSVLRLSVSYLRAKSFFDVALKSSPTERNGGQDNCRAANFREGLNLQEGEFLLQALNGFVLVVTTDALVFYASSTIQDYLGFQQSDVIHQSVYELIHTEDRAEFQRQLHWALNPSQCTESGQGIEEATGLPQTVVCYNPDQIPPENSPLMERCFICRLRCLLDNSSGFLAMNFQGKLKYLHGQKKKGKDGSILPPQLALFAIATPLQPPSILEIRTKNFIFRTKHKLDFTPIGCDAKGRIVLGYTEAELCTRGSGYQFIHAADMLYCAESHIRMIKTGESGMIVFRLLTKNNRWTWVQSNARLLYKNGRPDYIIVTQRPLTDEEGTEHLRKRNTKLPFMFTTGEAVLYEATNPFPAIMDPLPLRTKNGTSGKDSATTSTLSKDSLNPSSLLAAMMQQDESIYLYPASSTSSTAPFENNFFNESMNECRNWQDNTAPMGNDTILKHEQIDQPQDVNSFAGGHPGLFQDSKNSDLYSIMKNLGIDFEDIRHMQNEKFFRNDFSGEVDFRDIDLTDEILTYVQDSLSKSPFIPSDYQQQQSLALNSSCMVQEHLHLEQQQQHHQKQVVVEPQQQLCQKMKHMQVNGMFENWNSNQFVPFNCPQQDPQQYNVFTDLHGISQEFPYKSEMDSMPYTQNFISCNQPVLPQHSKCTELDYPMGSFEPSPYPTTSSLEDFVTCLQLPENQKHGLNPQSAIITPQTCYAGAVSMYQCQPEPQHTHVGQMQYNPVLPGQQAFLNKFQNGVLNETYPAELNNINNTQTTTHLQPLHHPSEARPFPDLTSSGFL
Procedure, shortened: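 U87 MG + DRE-firefly/constitutive-Renilla stable reporters; kynurenic acid prestim; dual-luc read; Renilla = tox; normalized vs pos/neg controls (pos: 150 μM KYNA + 5 μM staurosporine).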

[3] = mouse Hepa 1c1c7 cells, 200 μM kynurenic acid, 20 hours, read-out: AHR Antagonism Mouse IC50

Row | SMILES | IC50 (AHR [1]; [3]) | IC50 (AHR [2]) | IC50 (AHR [1]; read-out: AHR Antagonism Mouse IC50, mouse Hepa 1c1c7 cells, 200 μM kynurenic acid, 20 hours)
1 | O=C1NCCCC[C@H]1Nc1nc2ccccc2c2nc(-c3cnn(CC4CCC4)c3)nn12 [Example 597, (3R)-3-({2-[1-(cyclobutylmethyl)-1H-pyrazol-4-yl][1,2,4]triazolo[1,5-c]quinazolin-5-yl}amino)azepan-2-one] | 7.57 nM | 1.16e-08 M | 
2 | O=C1NCCCC[C@H]1Nc1nc2ccccc2c2nc(-c3cnn(CCCO)c3)nn12 [Example 598, (3R)-3-({2-[1-(3-hydroxypropyl)-1H-pyrazol-4-yl][1,2,4]triazolo[1,5-c]quinazolin-5-yl}amino)azepan-2-one] | 171 nM | 2.8e-07 M | 
3 | CN(C)CCn1cc(-c2nc3c4ccccc4nc(N[C@@H]4CCCCNC4=O)n3n2)cn1 [Example 599, (3R)-3-[(2-{1-[2-(dimethylamino)ethyl]-1H-pyrazol-4-yl}[1,2,4]triazolo[1,5-c]quinazolin-5-yl)amino]azepan-2-one] | 2120 nM | 5.81e-07 M | 
4 | O=C1NCCCC[C@H]1Nc1nc2ccccc2c2nc(-c3cnn(C4CCOCC4)c3)nn12 [Example 600, (3R)-3-({2-[1-(oxan-4-yl)-1H-pyrazol-4-yI][1,2,4]triazolo[1,5-c]quinazolin-5-yl}amino)azepan-2-one] | 31.3 nM | 4.48e-08 M | 
5 | CC(C)(C)n1nccc1-c1nc2c3ccccc3nc(N[C@@H]3CCCCNC3=O)n2n1 [Example 608, (3R)-3-{[2-(1-tert-butyl-1H-pyrazol-5-yl)[1,2,4]triazolo[1,5-c]quinazolin-5-yl]amino}azepan-2-one] | 25.5 nM | 1.12e-07 M | 
6 | Cn1cncc1-c1nc2c3ccccc3nc(N[C@@H]3CCCCNC3=O)n2n1 [Example 610, (3R)-3-{[2-(1-methyl-1H-imidazol-5-yl)[1,2,4]triazolo[1,5-c]quinazolin-5-yl]amino}azepan-2-one] | 86.5 nM | 2.44e-07 M | 
7 | O=C1NCCCC[C@H]1Nc1nc2ccccc2c2nc(-c3ccsc3Cl)nn12 [Example 611, (3R)-3-{[2-(2-chlorothiophen-3-yl)[1,2,4]triazolo[1,5-c]quinazolin-5-yl]amino}azepan-2-one] | 3.16 nM | 4.36e-09 M | 
8 | CC(C)Oc1ccc(-c2nc3c4ccccc4nc(N[C@@H]4CCCCNC4=O)n3n2)cc1 [Example 613, (3R)-3-[(2-{4-[(propan-2-yl)oxy]phenyl}[1,2,4]triazolo[1,5-c]quinazolin-5-yl)amino]azepan-2-one] | 0.799 nM | 1.17e-09 M | 
9 | CCOc1ccc(-c2nc3c4ccccc4nc(N[C@@H]4CCCCNC4=O)n3n2)cc1 [Example 616, (3R)-3-{[2-(4-ethoxyphenyl)[1,2,4]triazolo[1,5-c]quinazolin-5-yl]amino}azepan-2-one] | 1.07 nM | 7.6e-10 M | 
10 | Cc1cccc(C)c1-c1nc2c3ccccc3nc(N[C@@H]3CCCCNC3=O)n2n1 [Example 623, (3R)-3-{[2-(2,6-dimethylphenyl)[1,2,4]triazolo[1,5-c]quinazolin-5-yl]amino}azepan-2-one] | 4.65 nM | 3.37e-07 M | 
11 | O=C1NCCCC[C@H]1Nc1nc2ccccc2c2nc(-c3ccc(F)c(Cl)c3)nn12 [Example 625, (3R)-3-{[2-(3-chloro-4-fluorophenyl)[1,2,4]triazolo[1,5-c]quinazolin-5-yl]amino}azepan-2-one] |  | 1.5e-09 M | > 2000 nM

Further lines, with some results ahead:

Row | IC50 (AHR [1]; [3]) | IC50 (AHR [2]) | SMILES | IC50 (AHR [1]; read-out: AHR Antagonism Mouse IC50, mouse Hepa 1c1c7 cells, 200 μM kynurenic acid, 20 hours)
12 | 158 nM | 2.96e-07 M | O=C1NCCCC[C@H]1Nc1nc2ccccc2c2nc(-c3cnn(CCO)c3)nn12 [Example 601, (3R)-3-({2-[1-(2-hydroxyethyl)-1H-pyrazol-4-yl][1,2,4]triazolo[1,5-c]quinazolin-5-yl}amino)azepan-2-one] | 
13 | 2.69 nM | 6.81e-09 M | O=C1NCCCC[C@H]1Nc1nc2ccccc2c2nc(-c3cnn(CC4CC4)c3)nn12 [Example 602, (3R)-3-({2-[1-(cyclopropylmethyl)-1H-pyrazol-4-yl][1,2,4]triazolo[1,5-c]quinazolin-5-yl}amino)azepan-2-one] | 
14 | 3.39 nM | 4.08e-09 M | O=C1NCCCC[C@H]1Nc1nc2ccccc2c2nc(-c3cnn(C4CCC4)c3)nn12 [Example 603, (3R)-3-{[2-(1-cyclobutyl-1H-pyrazol-4-yl)[1,2,4]triazolo[1,5-c]quinazolin-5-yl]amino}azepan-2-one] | 
15 | 347 nM | 1.33e-07 M | O=C1NCCCC[C@H]1Nc1nc2ccccc2c2nc(-c3c[nH]nc3C(F)(F)F)nn12 [Example 604, (3R)-3-({2-[3-(trifluoromethyl)-1H-pyrazol-4-yl][1,2,4]triazolo[1,5-c]quinazolin-5-yl}amino)azepan-2-one] | 
16 | 1.05 nM | 1.59e-09 M | Cc1nn(C)cc1-c1nc2c3ccccc3nc(N[C@@H]3CCCCNC3=O)n2n1 [Example 605, (3R)-3-{[2-(1,3-dimethyl-1H-pyrazol-4-yl)[1,2,4]triazolo[1,5-c]quinazolin-5-yl]amino}azepan-2-one] | 
17 | 3.08 nM | 9.02e-09 M | Cc1cc(-c2nc3c4ccccc4nc(N[C@@H]4CCCCNC4=O)n3n2)c(C)n1C [Example 606, (3R)-3-{[2-(1,2,5-trimethyl-H-pyrrol-3-yl)[1,2,4]triazolo[1,5-c]quinazolin-5-yl]amino}azepan-2-one] | 
18 | 324 nM | 1.57e-07 M | Cc1[nH]ncc1-c1nc2c3ccccc3nc(N[C@@H]3CCCCNC3=O)n2n1 [Example 609, (3R)-3-{[2-(5-methyl-1H-pyrazol-4-yl)[1,2,4]triazolo[1,5-c]quinazolin-5-yl]amino}azepan-2-one] | 
19 | 1.23 nM | 1.32e-09 M | O=C1NCCCC[C@H]1Nc1nc2ccccc2c2nc(-c3ccc(OC4CC4)cc3)nn12 [Example 612, (3R)-3-({2-[4-(cyclopropyloxy)phenyl][1,2,4]triazolo[1,5-c]quinazolin-5-yl}amino)azepan-2-one] | 
20 | 23.8 nM | 2.09e-08 M | O=C1NCCCC[C@H]1Nc1nc2ccccc2c2nc(-c3ccc(O)cc3)nn12 [Example 614, (3R)-3-{[2-(4-hydroxyphenyl)[1,2,4]triazolo[1,5-c]quinazolin-5-yl]amino}azepan-2-one] | 
21 | 2.96 nM | 1.44e-09 M | N#Cc1ccccc1-c1nc2c3ccccc3nc(N[C@@H]3CCCCNC3=O)n2n1 [Example 619, 2-(5-{[(3R)-2-oxoazepan-3-yl]amino}[1,2,4]triazolo[1,5-c]quinazolin-2-yl)benzonitrile] | 
22 | 0.964 nM | 1.02e-09 M | Nc1cccc(-c2nc3c4ccccc4nc(N[C@@H]4CCCCNC4=O)n3n2)c1 [Example 621, (3R)-3-{[2-(3-aminophenyl)[1,2,4]triazolo[1,5-c]quinazolin-5-yl]amino}azepan-2-one] | 
23 | 1.24 nM | 3.49e-09 M | COc1ccc(-c2nc3c4ccccc4nc(N[C@@H]4CCCCNC4=O)n3n2)cc1OC [Example 624, (3R)-3-{[2-(3,4-dimethoxyphenyl)[1,2,4]triazolo[1,5-c]quinazolin-5-yl]amino}azepan-2-one] | 
